Measured values as given in PubChem BioAssay AID2060627 (Molecular Pharmacology Branch, DTP, NCI, 2025).
Where “and” joins values, the source holds several entries; their conditions need not be identical. Identical values can stand only once. One block for each compound: values may come before it.

System: 156681-154-R-J1-PDC complex spheroid viability
Test: Anticancer human tumor 156681-154-R-J1-PDC patient-derived melanoma cell line growth inhibition [CLK]
Settings: for viability, T/C: stronger effect = lower value
In short: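 Multi-cell-type spheroids combined patient-derived tumor cells with HUVEC endothelial cells and human mesenchymal stem cells. Paired agents were dosed in half-log steps down from about clinical Cmax, or from 10 microM where Cmax was unknown.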
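Further: spheroids exposed to the agents for seven days.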
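Wherever viability, T/C is given: 100% = DMSO vehicle control viability.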

IC50 (curve of compound): 27 nM and 20.3 nM
Structure (SMILES): COc1c(OCCCN2CCOCC2)ccc2c3n(c(=NC(=O)c4cnc(N)nc4)nc12)CCN3
viability, T/C (compound 0.00316 µM): 73.2% and 68.2%
viability, T/C (compound 0.01 µM): 69.9% and 67.5%
viability, T/C (compound 0.0316 µM): 45.8% and 39.1%
viability, T/C (compound 0.1 µM): 19.1% and 13.5%
viability, T/C (compound 0.316 µM): 3.62% and 2.73%
viability, T/C (compound 1 µM): 1.16% and 0.46%

IC50 (curve of compound): > 10000 nM
Structure (SMILES): C=CC(=O)N1CCN(c2nc(=O)n(-c3c(C)ccnc3C(C)C)c3nc(-c4c(O)cccc4F)c(F)cc23)C(C)C1 (stereo not drawn)
viability, T/C (compound 0.0316 µM): 99.5% and 84.9%
viability, T/C (compound 0.1 µM): 91.5% and 76.2%
viability, T/C (compound 0.316 µM): 101% and 112%
viability, T/C (compound 1 µM): 89.7% and 114%
viability, T/C (compound 3.16 µM): 116% and 106%
viability, T/C (compound 10 µM): 80.5% and 108%

More lines, now with the values behind:

Structure (SMILES): CNC(=O)c1ccc(Nc2nc(OC3CCCC3)c3c(-c4ccc5nc(C)oc5c4)c[nH]c3n2)c(OC)c1
viability, T/C (compound 0.0316 µM): 105% [middle of 12 runs]
viability, T/C (compound 0.1 µM): 63% [middle of 12 runs]
viability, T/C (compound 0.316 µM): 54.3% [middle of 12 runs]
viability, T/C (compound 1 µM): 36.4% [middle of 11 runs]
viability, T/C (compound 3.16 µM): 42.1% [middle of 12 runs]

Structure (SMILES): Nc1ccccc1NC(=O)c1ccc(CNC(=O)OCc2cccnc2)cc1 + CNC(=O)c1ccc(Nc2nc(OC3CCCC3)c3c(-c4ccc5nc(C)oc5c4)c[nH]c3n2)c(OC)c1
IC50 (curve of first compound, second compound 0.0316 µM): 572 nM
IC50 (curve of first compound, second compound 0.1 µM): 293 nM
IC50 (curve of first compound, second compound 0.316 µM): 337 nM
IC50 (curve of first compound, second compound 1 µM): 141 nM
IC50 (curve of first compound, second compound 3.16 µM): 67.6 nM
IC50 (curve of first compound, second compound 10 µM): 50.7 nM
viability, T/C (second compound 0.0316 µM, first compound 0.0316 µM): 115%
viability, T/C (second compound 0.0316 µM, first compound 0.1 µM): 91.2%
viability, T/C (second compound 0.0316 µM, first compound 0.316 µM): 64.9%
viability, T/C (second compound 0.0316 µM, first compound 1 µM): 42%
viability, T/C (second compound 0.0316 µM, first compound 3.16 µM): 3.29%
viability, T/C (second compound 0.0316 µM, first compound 10 µM): 1.7%
viability, T/C (second compound 0.1 µM, first compound 0.0316 µM): 70%
viability, T/C (second compound 0.1 µM, first compound 0.1 µM): 66.3%
viability, T/C (second compound 0.1 µM, first compound 0.316 µM): 45.7%
viability, T/C (second compound 0.1 µM, first compound 1 µM): 30.2%
viability, T/C (second compound 0.1 µM, first compound 3.16 µM): 3.46%
viability, T/C (second compound 0.1 µM, first compound 10 µM): 5.63%
viability, T/C (second compound 0.316 µM, first compound 0.0316 µM): 58.1%
viability, T/C (second compound 0.316 µM, first compound 0.1 µM): 59.4%
viability, T/C (second compound 0.316 µM, first compound 0.316 µM): 46%
viability, T/C (second compound 0.316 µM, first compound 1 µM): 34.6%
viability, T/C (second compound 0.316 µM, first compound 3.16 µM): 4.74%
viability, T/C (second compound 0.316 µM, first compound 10 µM): 8.02%
viability, T/C (second compound 1 µM, first compound 0.0316 µM): 64.6%
viability, T/C (second compound 1 µM, first compound 0.1 µM): 50.3%
viability, T/C (second compound 1 µM, first compound 0.316 µM): 41.3%
viability, T/C (second compound 1 µM, first compound 1 µM): 28.1%
viability, T/C (second compound 1 µM, first compound 3.16 µM): 4.08%
viability, T/C (second compound 1 µM, first compound 10 µM): 0.99%
viability, T/C (second compound 3.16 µM, first compound 0.0316 µM): 49.8%
viability, T/C (second compound 3.16 µM, first compound 0.1 µM): 53.3%
viability, T/C (second compound 3.16 µM, first compound 0.316 µM): 35.8%
viability, T/C (second compound 3.16 µM, first compound 1 µM): 23.8%
viability, T/C (second compound 3.16 µM, first compound 3.16 µM): 3.27%
viability, T/C (second compound 3.16 µM, first compound 10 µM): 0.11%
viability, T/C (second compound 10 µM, first compound 0.0316 µM): 57.1%
viability, T/C (second compound 10 µM, first compound 0.1 µM): 38.4%
viability, T/C (second compound 10 µM, first compound 0.316 µM): 29.6%
viability, T/C (second compound 10 µM, first compound 1 µM): 22.6%
viability, T/C (second compound 10 µM, first compound 3.16 µM): 2.77%
viability, T/C (second compound 10 µM, first compound 10 µM): 0.3%

Structure (SMILES): Nc1ccccc1NC(=O)c1ccc(CNC(=O)OCc2cccnc2)cc1
viability, T/C (compound 0.0316 µM): 105% and 91.2%
viability, T/C (compound 0.1 µM): 98.8% and 108%
viability, T/C (compound 0.316 µM): 71.4% and 47.5%
viability, T/C (compound 1 µM): 40.7% and 27%
viability, T/C (compound 3.16 µM): 6.65% and 4.95%
viability, T/C (compound 10 µM): 0.46% and 0.13%
IC50 (curve of compound): 674 nM and 305 nM
